The values below come from publication PMC8341744 (RSC Chemical Biology, 2020).

Read-outs that look alike come from different tables or passages of the source.

The target in assay [1] is T1, Mcl-1 (Mus musculus, UniProt P97287, F227L/F267C/G222D/K236S/Q303E/S261T/T274S/V232I/V262I). As to conditions: Mcl-1/Noxa; parent peptide; cited from earlier work.
The target of assay [2] is T1, Mcl-1. The assay is described as follows: FITC-NoxaB Mcl-1 competitive binding fluorescence anisotropy.

The term IC50 denotes the concentration at which inhibition is half-maximal.

T1 sequence (P97287 152-308 G222D/F227L/V232I/K236S/S261T/V262I/F267C/T274S/Q303E): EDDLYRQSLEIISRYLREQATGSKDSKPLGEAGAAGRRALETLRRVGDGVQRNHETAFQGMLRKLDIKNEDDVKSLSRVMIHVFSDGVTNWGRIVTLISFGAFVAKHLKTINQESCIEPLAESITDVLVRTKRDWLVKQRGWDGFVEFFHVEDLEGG

As to “AAQLRRIGDKVNLRQKLLN [NoxaB-(75–93)-C75A peptide]”, the half-maximal inhibitory concentration (IC50) with Mcl-1 [1] was 0.65 µM. At Mcl-1 [2], `CC(=O)O[C@@H]1[C@@H](OC(C)=O)[C@H](OC(C)=O)CO[C@H]1n1cc(-c2ccc(Cl)cc2)nn1` [compound 7, (2R,3R,4S,5R)-2-(4-(4-chlorophenyl)-1H-1,2,3-triazol-1-yl)tetrahydro-2H-pyran-3,4,5-triyl triacetate] registered an IC50 of 4.39 µM. Same read-out and setting: as for `CC(=O)O[C@@H]1[C@@H](OC(C)=O)[C@H](OC(C)=O)CO[C@H]1n1cc(-c2ccc(Br)cc2)nn1` [compound 8, (2R,3R,4S,5R)-2-(4-(4-bromophenyl)-1H-1,2,3-triazol-1-yl)tetrahydro-2H-pyran-3,4,5-triyl triacetate], the figure is 7.03 µM.
